Consider 43 molecules from ChEMBL document CHEMBL3351509, “Identification of 3,6-disubstituted dihydropyrones as inhibitors of human lactate dehydrogenase” (Bioorg Med Chem Lett, 2014).

Converted amounts (≈) assume the structure as drawn.

One may read the IC50 as the point on the concentration scale where inhibition reaches its midpoint. Lower therefore signals greater potency. By pKa is commonly meant the pH at which an ionisable group is half protonated. As a reminder, the Papp A→B is the apparent permeability from the apical to the basolateral side of a cell layer. Read a high Papp A→B as fast passage. One may read the Papp B→A as how fast a substance crosses the layer from the basolateral side. Usually fraction unbound stands for the share of the substance not bound to proteins or other matrix. One may read the EC50 as the concentration needed to bring the measured effect to its halfway point.

For series [1], the target named is L-lactate dehydrogenase A chain (Homo sapiens, UniProt P00338). Briefly: Inhibition of human LDH-A by biochemical assay.
A short description of series [2]: Dissociation constant, pKa of the compound. Type of series: physicochemical.
Series [3] is described as follows: Permeability from apical to basolateral side in MDCK cells. Format: ADME, cell-based, Canis lupus familiaris. The conditions noted are these: dog.
Series [4] in a line: Permeability from basolateral to apical side in MDCK cells. Type of series: ADME, cell-based, Canis lupus familiaris. The conditions noted are these: dog.
Series [5] is described as follows: Unbound fraction in human plasma. Type of series: ADME, cell-free.
Series [6] in a line: Unbound fraction in rat plasma. Type of series: ADME, cell-free.
Series [7] in a line: Kinetic solubility in pH 7.4 buffered aqueous solution. The conditions noted are these: read-out: Kinetic_solubility. Type of series: physicochemical.
A short description of series [8]: Hepatic clearance in human liver microsomes. Format: ADME.
Series [9] can be described thus: Hepatic clearance in rat liver microsomes. Type of series: ADME. In general terms: Microsomes from liver hold many membrane-bound enzymes, among them those of drug oxidation.
Series [10] deals with MCF7. Briefly: Inhibition of lactate production in human MCF7 cells under standard serum conditions. Type of series: functional, cell-based.
Series [11] relates to MCF7. Briefly: Inhibition of lactate production in human MCF7 cells in absence of serum. Format: functional, cell-based.
Series [12] deals with MCF7. In words: Toxicity in human MCF7 cells assessed as effect on cell viability. Type of series: cell-based.

`O=C1CC(c2ccccc2)CC(O)=C1Sc1ccccc1Cl` (stereo not drawn) returned an IC50 in series [1] of 4 µM. Moreover, in [2], the pKa is 3. The Papp A→B in [3] was 12 ×10⁻⁶ cm/s. Moreover, the basolateral-to-apical permeability (Papp B→A) in series [4] was 18 ×10⁻⁶ cm/s.

Take `O=C1OC(C(=O)O)(c2ccccc2)CC(O)=C1Sc1ccccc1Cl` (stereo not drawn): the IC50 in series [1] amounted to 46 µM.

In turn, `O=C1OC(c2ccccc2)CC(O)=C1Sc1ccccc1Cl` (stereo not drawn) returned an IC50 in [1] of 4 µM. Further, the pKa in [2] was 2.4. The same molecule showed a Papp A→B in [3] of 3 ×10⁻⁶ cm/s. Besides, in series [4], the Papp B→A came to 5 ×10⁻⁶ cm/s. The fraction unbound in series [5] and in [6] was 0.008 in each case.

`O=C1NC(c2ccccc2)CC(O)=C1Sc1ccccc1Cl` (stereo not drawn) displayed a pKa in series [2] of 4.1. The molecule also returned an apical-to-basolateral permeability (Papp A→B) in series [3] of 7 ×10⁻⁶ cm/s. Also, the Papp B→A in [4] stood at 9 ×10⁻⁶ cm/s. Also, the unbound share (fraction unbound) in series [5] stood at 0.003; in series [6], 0.006.

As to `O=C1OC(c2ccccc2)CC(O)=C1Oc1ccccc1Cl` (stereo not drawn), the IC50 in [1] is 11 µM. In series [2], this molecule yielded a pKa of 3.4. The molecule also registered a Papp A→B in [3] of 4 ×10⁻⁶ cm/s. Further, the Papp B→A in series [4] was 6 ×10⁻⁶ cm/s. The figures for the fraction unbound in series [5] and in series [6] were 0.006 and 0.013, respectively.

In the case of `O=C1CC(c2ccccc2)CC(O)=C1Oc1ccccc1Cl` (stereo not drawn), the IC50 in series [1] was found to be 26 µM. Besides, in series [2], the pKa stood at 3.7. The molecule further returned a Papp A→B in series [3] of 11 ×10⁻⁶ cm/s. In addition, the Papp B→A in [4] was found to be 16 ×10⁻⁶ cm/s. Besides, the fraction unbound in series [5] was found to be 0.011; in series [6], 0.012.

Molecule `O=C1NC(c2ccccc2)CC(O)=C1Oc1ccccc1Cl` (stereo not drawn) yielded a half-maximal inhibitory concentration (IC50) in [1] of 11 µM. Besides, the pKa in [2] stood at 5.3. In addition, the Papp A→B in series [3] stood at 11 ×10⁻⁶ cm/s. The Papp B→A in series [4] turned out to be 12 ×10⁻⁶ cm/s. The fraction unbound was found to be 0.022 in [5] and 0.023 in series [6].

As to `O=C1OC(c2ccccc2)CC(O)=C1Nc1ccccc1Cl` (stereo not drawn), half-maximal inhibition in series [1] (IC50) was put at 13 µM. In series [2], this molecule came in with a pKa of 4.2. In series [3], this molecule showed a Papp A→B of 8 ×10⁻⁶ cm/s. In addition, in series [4], the Papp B→A is 10 ×10⁻⁶ cm/s.

For the molecule `O=C1CC(c2ccccc2)CC(O)=C1Nc1ccccc1Cl` (stereo not drawn), in series [1], the IC50 was found to be 25 µM. In series [2], this molecule came in with a pKa of 4.6. In series [3], the Papp A→B is 4 ×10⁻⁶ cm/s. Besides, the Papp B→A in series [4] amounted to 10 ×10⁻⁶ cm/s.

With `O=C1NC(c2ccccc2)CC(O)=C1Nc1ccccc1Cl` (stereo not drawn), the IC50 in series [1] was determined as 66 µM. In [2], this molecule registered a pKa of 6. In addition, in series [3], the Papp A→B was determined as 19 ×10⁻⁶ cm/s. Moreover, the Papp B→A in series [4] is 30 ×10⁻⁶ cm/s.

In series [1], `O=C1OC(c2ccccc2Cl)CC(O)=C1Sc1ccccc1Cl` (stereo not drawn) yielded an IC50 of 5.5 µM. In other words, the single-digit micromolar range.

`O=C1OC(c2cccc(Cl)c2)CC(O)=C1Sc1ccccc1Cl` (stereo not drawn) came in with an IC50 in series [1] of 3.9 µM.

Consider `O=C1OC(c2ccc(Cl)cc2)CC(O)=C1Sc1ccccc1Cl` (stereo not drawn), for which, in series [1], the IC50 came to 16 µM.

For the molecule `O=C1OC(c2c(Cl)cccc2Cl)CC(O)=C1Sc1ccccc1Cl` (stereo not drawn), the half-inhibitory concentration (IC50) in series [1] came to 5 µM.

As to `Cc1cccc(C)c1C1CC(O)=C(Sc2ccccc2Cl)C(=O)O1` (stereo not drawn), the IC50 in series [1] amounted to 17 µM.

In series [1], `N#Cc1ccccc1C1CC(O)=C(Sc2ccccc2Cl)C(=O)O1` (stereo not drawn) had a half-inhibitory concentration (IC50) of more than 100 µM.

Molecule `N#Cc1cccc(C2CC(O)=C(Sc3ccccc3Cl)C(=O)O2)c1` (stereo not drawn) yielded an IC50 in series [1] of 9.5 µM.

`CCOc1ccccc1C1CC(O)=C(Sc2ccccc2Cl)C(=O)O1` (stereo not drawn): 3.8 µM corresponded to half-maximal inhibition in series [1] (IC50).

Turning to `CCOc1cccc(C2CC(O)=C(Sc3ccccc3Cl)C(=O)O2)c1` (stereo not drawn), in series [1], it took 2.2 µM to reach half-maximal inhibition (IC50).

Molecule `CC(C)C1CC(O)=C(Sc2ccccc2Cl)C(=O)O1` (stereo not drawn) yielded an IC50 in series [1] of more than 100 µM.

`O=C1OC(C2CCOCC2)CC(O)=C1Sc1ccccc1Cl` (stereo not drawn): in [1], the IC50 was more than 100 µM.

`Cn1ccc(C2CC(O)=C(Sc3ccccc3Cl)C(=O)O2)n1` (stereo not drawn) registered an IC50 in series [1] of 35 µM. In other words, the double-digit micromolar range.

As for `O=C1OC(c2cncnc2)CC(O)=C1Sc1ccccc1Cl` (stereo not drawn), in [1], half-maximal inhibition (IC50) was put at 73 µM. This IC50 lies about 2.1-fold higher than the previous one.

In series [1], `O=C1OC(c2ccccn2)CC(O)=C1Sc1ccccc1Cl` (stereo not drawn) showed an IC50 of 3.5 µM.

In series [1], `O=C1OC(c2cccnc2)CC(O)=C1Sc1ccccc1Cl` (stereo not drawn) yielded an IC50 of 15 µM.

As for `O=C1OC(c2ccncc2)CC(O)=C1Sc1ccccc1Cl` (stereo not drawn), it took 43 µM to reach half-maximal inhibition in [1] (IC50).

In the case of `CC1(c2ccccc2)CC(O)=C(Sc2ccccc2Cl)C(=O)O1` (stereo not drawn), the IC50 in series [1] was found to be 4.1 µM. This IC50 lies about 10-fold lower than the previous one.

`O=C1OC(c2ccccc2)(C2CC2)CC(O)=C1Sc1ccccc1Cl` (stereo not drawn): the midpoint of inhibition in series [1], the IC50, lay at 13 µM.

On to `O=C1OC(CO)(c2ccccc2)CC(O)=C1Sc1ccccc1Cl` (stereo not drawn), for which, in [1], the IC50 was found to be 5.6 µM. This IC50 lies about 2.3-fold lower than the previous one.

In turn, `NC(=O)C1(c2ccccc2)CC(O)=C(Sc2ccccc2Cl)C(=O)O1` (stereo not drawn) came in with an IC50 in [1] of 6.6 µM. The IC50 values of the last two molecules are within 1.5-fold of each other.

For `CNC(=O)C1(c2ccccc2)CC(O)=C(Sc2ccccc2Cl)C(=O)O1` (stereo not drawn), in series [1], the IC50 amounted to 7.4 µM.

In turn, `CN(C)C(=O)C1(c2ccccc2)CC(O)=C(Sc2ccccc2Cl)C(=O)O1` (stereo not drawn) returned an IC50 in series [1] of 22 µM.

`CNC(=O)CC1(c2ccccc2)CC(O)=C(Sc2ccccc2Cl)C(=O)O1` (stereo not drawn) gave an IC50 in series [1] of 59 µM.

In [1], `O=C1OC2(CCc3c(Br)cccc32)CC(O)=C1Sc1ccccc1Cl` (single isomer, unassigned) returned an IC50 of 2.1 µM.

The molecule `O=C1OC2(CCOc3ccccc32)CC(O)=C1Sc1ccccc1Cl` (single isomer, unassigned; enantiomer A) showed an IC50 in series [1] of 3.3 µM. Compared with the last molecule, the IC50 is about 1.6-fold higher.

Regarding `O=C1OC2(CCCc3ccccc32)CC(O)=C1Sc1ccccc1Cl` (single isomer, unassigned; enantiomer A), the IC50 in series [1] came to 2.1 µM.

For the molecule `O=C1OC2(CCc3ccccc32)CC(O)=C1Sc1ccccc1Cl` (single isomer, unassigned; enantiomer A), the IC50 in series [1] is 0.36 µM.

For the molecule `O=C1OC2(CCc3c(Br)cccc32)CC(O)=C1Sc1ccccc1Cl` (single isomer, unassigned; enantiomer A), the IC50 in series [1] came out at 0.35 µM.

With `O=C1OC2(CCc3c(-c4ccccc4)cccc32)CC(O)=C1Sc1ccccc1Cl` (single isomer, unassigned; enantiomer A), the half-maximal inhibitory concentration (IC50) in series [1] came out at 0.03 µM. This molecule showed a Papp A→B in [3] of 1.6 ×10⁻⁶ cm/s. Also, the fraction unbound in series [5] and in series [6] was less than 0.01 each time. For the same molecule, the solubility kinetic in series [7] worked out at 169 µM (≈ 73.5 µg/mL). The CLhep predicted in series [8] is 20 mL/min/kg; in [9] it was 41 mL/min/kg. Further, the values for the EC50 in series [10] and in [11] were more than 50 µM and 32 µM, respectively. For the same molecule, the Activity entry in series [12] was “Non-toxic”.

Take `O=C1OC2(CCOc3ccccc32)CC(O)=C1Sc1ccccc1Cl` (single isomer, unassigned; enantiomer B): in series [1], the IC50 was determined as 28 µM.

`O=C1OC2(CCCc3ccccc32)CC(O)=C1Sc1ccccc1Cl` (single isomer, unassigned; enantiomer B) showed an IC50 in series [1] of 22 µM.

In the case of `O=C1OC2(CCc3ccccc32)CC(O)=C1Sc1ccccc1Cl` (single isomer, unassigned; enantiomer B), the IC50 in series [1] came out at 2.6 µM.

`O=C1OC2(CCc3c(-c4ccccc4)cccc32)CC(O)=C1Sc1ccccc1Cl` (single isomer, unassigned; enantiomer b) yielded an IC50 in series [1] of 0.61 µM. Compared with the last molecule, the IC50 is about 4.3-fold lower.
